Results as given in publication PMC3914206.

Experiments:
Type in all cases: binding
Conditions in all cases: Compound Concentration 10 µM
[1] = molecular target: T1, panel of 442 kinases (Homo sapiens, UniProt P06241)
T1 construct: purchased KINOMEscan
From the text: (§1) We assessed the selectivity of members of this scaffold using the KINOMEscan methodology across a near comprehensive panel of 442 kinases [[18,27]].

[2] = molecular target: T2, panel of 442 kinases (Homo sapiens, UniProt P49336)
T2 construct: purchased KINOMEscan
From the text: as §1

[3] = molecular target: T3, panel of 442 kinases (Homo sapiens, UniProt P46734)
T3 construct: purchased KINOMEscan
T3 sequence (P46734 1-347): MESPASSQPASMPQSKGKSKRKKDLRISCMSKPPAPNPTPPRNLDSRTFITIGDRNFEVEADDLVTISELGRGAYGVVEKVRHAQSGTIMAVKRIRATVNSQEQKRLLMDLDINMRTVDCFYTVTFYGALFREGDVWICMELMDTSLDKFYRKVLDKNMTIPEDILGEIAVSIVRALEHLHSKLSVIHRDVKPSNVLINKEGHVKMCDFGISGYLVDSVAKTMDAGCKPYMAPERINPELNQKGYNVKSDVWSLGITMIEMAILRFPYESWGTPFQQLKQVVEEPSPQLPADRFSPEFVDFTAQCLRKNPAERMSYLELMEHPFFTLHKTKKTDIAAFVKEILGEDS
From the text: as §1

T1 sequence (P06241 whole entry): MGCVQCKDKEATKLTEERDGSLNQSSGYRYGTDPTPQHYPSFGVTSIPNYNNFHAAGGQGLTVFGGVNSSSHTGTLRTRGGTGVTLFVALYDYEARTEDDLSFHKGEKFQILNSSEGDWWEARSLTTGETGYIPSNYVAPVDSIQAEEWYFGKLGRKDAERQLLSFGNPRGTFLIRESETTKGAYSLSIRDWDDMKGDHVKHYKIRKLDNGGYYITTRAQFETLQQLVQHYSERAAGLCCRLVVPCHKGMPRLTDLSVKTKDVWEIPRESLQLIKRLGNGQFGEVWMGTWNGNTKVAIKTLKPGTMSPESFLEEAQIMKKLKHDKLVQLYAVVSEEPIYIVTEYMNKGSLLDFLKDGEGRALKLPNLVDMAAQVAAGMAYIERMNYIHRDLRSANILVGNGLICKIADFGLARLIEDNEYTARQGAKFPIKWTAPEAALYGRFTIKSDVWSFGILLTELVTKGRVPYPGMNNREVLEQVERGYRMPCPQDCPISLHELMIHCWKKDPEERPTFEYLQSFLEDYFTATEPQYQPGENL
T2 sequence (P49336 whole entry): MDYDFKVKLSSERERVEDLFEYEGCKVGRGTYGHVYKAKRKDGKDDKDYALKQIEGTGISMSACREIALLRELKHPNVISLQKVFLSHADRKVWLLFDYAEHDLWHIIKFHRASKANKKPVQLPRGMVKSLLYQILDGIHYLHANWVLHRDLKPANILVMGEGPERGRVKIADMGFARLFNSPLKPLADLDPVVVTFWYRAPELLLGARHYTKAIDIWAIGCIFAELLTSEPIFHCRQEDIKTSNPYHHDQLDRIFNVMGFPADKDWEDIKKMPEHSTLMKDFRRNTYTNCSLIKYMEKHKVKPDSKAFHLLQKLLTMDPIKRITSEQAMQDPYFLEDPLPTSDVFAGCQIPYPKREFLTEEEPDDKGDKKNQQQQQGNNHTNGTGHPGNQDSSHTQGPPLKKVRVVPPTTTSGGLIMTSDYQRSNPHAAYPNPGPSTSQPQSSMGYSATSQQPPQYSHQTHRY

Row | Compound | KINOMEscan: FYN [1] | KINOMEscan: CDK8 [2] | KINOMEscan: MEK3 [3]
1 | COc1cc(C(=O)N2CCC(N3CCN(C)CC3)CC2)ccc1Nc1ncc2c(n1)N(C)c1ccccc1C(=O)N2C [15 (LRRK2-IN-1)] | 100 | 100 | 75
2 | COc1cc(C(=O)N2CCC(N3CCN(C)CC3)CC2)ccc1Nc1ncc2c(n1)N1CCc3cccc(c31)C(=O)N2C [Compound 24] | 82 | 91 | 65
3 | COc1cc(C(=O)N2CCC(N3CCN(C)CC3)CC2)ccc1Nc1ncc2c(n1)N(C1CCCC1)c1ccccc1C(=O)N2C [Compound 25, 11-cyclopentyl-2-((2-methoxy-4-(4-(4-methylpiperazin-1-yl)piperidine-1-carbonyl)phenyl)amino)-5-methyl-5H-benzo[e]pyrimido[5,4-b][1,4]diazepin-6(11H)-one] | 86 | 100 | 73
4 | CCOc1cc(C(=O)N2CCC(N3CCN(C)CC3)CC2)ccc1Nc1ncc2c(n1)N(C1CCCC1)c1ccccc1C(=O)N2C [Compound 26] | 78 | 95 | 86
